Data from US20160168126A1, “CHEMICAL COMPOUNDS” (SYNGENTA LIMITED, priority 2013, published 2016).

Test system: a variety of test species
Assay: Post-emergence herbicidal activity (glasshouse, sprayed 8 days after sowing, evaluated after 13 days)
Format: in vivo
Details: 1000 g/ha, scale 0-5
Protocol: Seeds of a variety of test species were sown in standard soil in pots. After 8 days cultivation (post-emergence) under controlled conditions in a glasshouse (at 24/16° C., day/night; 14 hours light; 65% humidity), the plants were sprayed with an aqueous spray solution derived from the formulation of the technical active ingredient in acetone/water (50:50) solution containing 0.5% Tween 20 (polyoxyethelyene sorbitan monolaurate, CAS RN 9005-64-5). The test plants were then grown in a glasshouse under controlled conditions (at 24/16° C., day/night; 14 hours light; 65% humidity) and watered twice daily. After 13 days, the test was evaluated (5=total damage to plant; 0=no damage to plant).

Compound | Post-emergence herbicidal damage score, ABUTH (Abutilon theophrasti) | Post-emergence herbicidal damage score, ALOMY (Alopecurus myosuroides) | Post-emergence herbicidal damage score, AMARE (Amaranthus retroflexus) | Post-emergence herbicidal damage score, ECHCG (Echinochloa crus-galli) | Post-emergence herbicidal damage score, SETFA (Setaria faberi) | Post-emergence herbicidal damage score, ZEAMX (Zea mays)
CC1=C(Cl)C(O)N(c2cc(C3CC3)[nH]n2)C1=O (stereo not drawn) [Compound A4] | 5 | 4 | 4 | 5 | 4 | 1
CC1=C(Cl)C(O)N(c2cc(C(C)(F)C(C)(C)C)n(C)n2)C1=O (mixture of isomers) [Compound B22] | 1 | 1 | 0 | 2 | 3 | 1
CC1=C(Cl)C(O)N(c2cc(C(F)(F)F)n(C(C)C)n2)C1=O (stereo not drawn) [Compound C4] | 0 | 0 | 1 | 1 | 1 | 1
CC1=C(Cl)C(O)N(c2cc(C(F)(F)C(F)(F)F)n(C)n2)C1=O (stereo not drawn) [Compound B4] | 5 | 4 | 5 | 4 | 3 | 0
CCC(C)(CC)c1cc(N2C(=O)C(C)=C(Cl)C2O)n[nH]1 (stereo not drawn) [Compound A7] | 5 | 3 | 5 | 5 | 5 | 1
CCCC1=C(Cl)C(O)N(c2cc(C(C)(C)C#N)n(C)n2)C1=O (stereo not drawn) [Compound E2] | 4 | 4 | 5 | 5 | 4 | 1
CC1=C(Cl)C(O)N(c2cc(Cl)n(C)n2)C1=O (stereo not drawn) [Compound B9] | 5 | 4 | 5 | 5 | 5 | 1
CC1=C(Cl)C(O)N(c2cc(C(C)C(F)(F)F)n(C)n2)C1=O (mixture of isomers) [Compound B21] | 4 | 5 | 5 | 5 | 5 | 1
CC1=C(Cl)C(O)N(c2cc(C)n(C(F)(F)F)n2)C1=O (stereo not drawn) [Compound C9] | 1 | 0 | 1 | 1 | 0 | 1
CC(C)=CCc1cc(N2C(=O)C(C)=C(Br)C2O)nn1C (stereo not drawn) [Compound H3] | 0 | 0 | 0 | 0 | 0 | 0
